Reference: patent US9809587B2, “Pesticidally active heterocyclic derivatives with sulphur containing substituents” (Syngenta Participations AG, priority 2014, dated 2017)

Assays:
Type in all cases: in vivo
[1] = system: Myzus persicae (Green Peach Aphid); experiment: Myzus persicae (green peach aphid), roots of pea seedlings in test solution; conditions: 144 h, test rate of 24 ppm, roots of infested pea seedlings in test solution, 6 days
Experimental: Example B5: Myzus persicae (Green Peach Aphid)
Roots of pea seedlings infested with an aphid population of mixed ages were placed directly in the aqueous test solutions prepared from 10′000 DMSO stock solutions. The samples were assessed for mortality 6 days after placing seedlings in test solutions.

[2] = system: Myzus persicae (Green Peach Aphid); experiment: Myzus persicae (green peach aphid), sprayed sunflower leaf discs; conditions: foliar, 144 h, application rate of 200 ppm, mixed ages on sunflower leaf discs, 6 days after infestation
Experimental: Example B4: Myzus persicae (Green Peach Aphid)
Sunflower leaf discs were placed on agar in a 24-well microtiter plate and sprayed with aqueous test solutions prepared from 10′000 ppm DMSO stock solutions. After drying, the leaf discs were infested with an aphid population of mixed ages. The samples were assessed for mortality 6 days after infestation.

[3] = system: Spodoptera littoralis (Egyqptian Cotton Leaf Worm); experiment: Spodoptera littoralis (Egyptian cotton leaf worm), sprayed cotton leaf discs; conditions: foliar, 72 h, application rate of 200 ppm, L1 larvae on cotton leaf discs, 3 days after infestation
Procedure, shortened: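 Cotton leaf discs on agar were sprayed with aqueous dilutions made from 10′000 ppm DMSO stocks, then infested after drying with five L1 larvae. Mortality, anti-feedant effect and growth inhibition were scored against untreated discs 3 days after infestation. Control means at least one of these exceeds the untreated sample.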

[4] = system: Frankliniella occidentalis (Western Flower Thrips); experiment: Frankliniella occidentalis (western flower thrips), sprayed sunflower leaf discs; conditions: foliar, 168 h, application rate of 200 ppm, mixed ages on sunflower leaf discs, 7 days after infestation
Experimental: Example B11: Frankliniella occidentalis (Western Flower Thrips)
Sunflower leaf discs were placed on agar in 24-well microtiter plates and sprayed with aqueous test solutions prepared from […] stock solutions. After drying the leaf discs were infested with a Frankliniella population of mixed ages. The samples were assessed for mortality 7 days after infestation.

[5] = system: Thrips tabaci (Onion Thrips); experiment: Thrips tabaci (onion thrips), sprayed sunflower leaf discs; conditions: foliar, 144 h, application rate of 200 ppm, mixed ages on sunflower leaf discs, 6 days after infestation
Experimental: Example B10: Thrips tabaci (Onion Thrips)
Sunflower leaf discs were placed on agar in 24-well microtiter plates and sprayed with aqueous test solutions prepared from 10′000 ppm DMSO stock solutions. After drying the leaf discs were infested with a thrips population of mixed ages. The samples were assessed for mortality 6 days after infestation.

[6] = system: Euschistus heros (Neotropical Brown Stink Bug); experiment: Euschistus heros (neotropical brown stink bug), sprayed soybean leaf; conditions: 120 h, application rate of 200 ppm, N-2 nymphs on soybean leaf, 5 days after infestation
Experimental: Example B3: Euschistus heros (Neotropical Brown Stink Bug)
Soybean leaf on agar in 24-well microtiter plates were sprayed with aqueous test solutions prepared from 10′000 ppm DMSO stock solutions. After drying the leaf were infested with N-2 nymphs. The samples were assessed for mortality in comparison to untreated samples 5 days after infestation.

[7] = system: Plutella xylostella (Diamond Back Moth); experiment: Plutella xylostella (diamond back moth), treated artificial diet; conditions: 120 h, application rate of 200 ppm, L2 larvae on artificial diet, 5 days after infestation, read-out: effect in at least one of the two categories (mortality or growth inhibition)
Procedure, shortened: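 Artificial diet treated with aqueous dilutions of DMSO stocks (10′000 ppm stock), dried, then infested with 10-15 L2 larvae per well. Mortality and growth inhibition assessed versus untreated controls 5 days after infestation.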

[8] = system: Bemisia tabaci (Cotton White Fly); experiment: Bemisia tabaci (cotton white fly), sprayed cotton leaf discs; conditions: foliar, 144 h, application rate of 200 ppm, adult white flies on cotton leaf discs, 6 days after incubation
Experimental: Example B1: Bemisia tabaci (Cotton White Fly)
Cotton leaf discs were placed on agar in 24-well microtiter plates and sprayed with aqueous test solutions prepared from 10′000 ppm DMSO stock solutions. After drying the leaf discs were infested with adult white flies. The samples were checked for mortality 6 days after incubation.

[9] = system: Spodoptera littoralis (Egyqptian Cotton Leaf Worm); experiment: Spodoptera littoralis (Egyptian cotton leaf worm), compound in agar taken up by lettuce roots; conditions: 144 h, test rate of 12.5 ppm, uptake by lettuce roots from agar, 6 days after infestation, read-out: effect in at least one of the three categories (mortality, anti-feedancy, or growth inhibition)
Procedure, shortened: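 Compound mixed into agar from a 10′000 ppm DMSO stock and taken up over 7 days by lettuce roots; cut leaves then infested with Spodoptera eggs. Mortality, anti-feedant effect and growth inhibition scored against untreated samples 6 days after infestation.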

[10] = system: Diabrotica balteata (Corn Root Worm); experiment: Diabrotica balteata (corn root worm), sprayed maize sprouts; conditions: 96 h, application rate of 200 ppm, L2 larvae on maize sprouts, 4 days after infestation
Experimental: Example B2: Diabrotica balteata (Corn Root Worm)
Maize sprouts, placed on an agar layer in 24-well microtiter plates were treated with aqueous test solutions prepared from 10′000 ppm DMSO stock solutions by spraying. After drying, the plates were infested with L2 larvae (6 to 10 per well). The samples were assessed for mortality and growth inhibition in comparison to untreated samples 4 days after infestation.

[11] = system: Aedes aegypti (Yellow Fever Mosquito); experiment: Activity against Aedes aegypti (yellow fever mosquito), dried deposits in tissue culture plates; conditions: application rate of 200 ppm in ethanol, adult females, after 48 h
Experimental: Example B12: Activity Against Aedes aegypti (Yellow Fever Mosquito)
Test solutions, at an application rate of 200 ppm in ethanol, were applied to 12-well tissue culture plates. Once the deposits were dry, five, two to five days old adult female Aedes aegypti were added to each well, and sustained with a 10% sucrose solution in a cotton wool plug. Assessment of knockdown was made one hour after introduction, and mortality was assessed at 24 and 48 hours after introduction.
The following compounds gave at least 80% control of Aedes aegypti after 48 h: […]

CCS(=O)(=O)c1cc(-c2cncnc2)cnc1-c1nc2cc(C(F)(F)F)ncc2n1C [Compound P8]
≥ 80%: mortality at 24 ppm [1] | mortality at 200 ppm [2] | percent control (mortality, anti-feedant effect or growth inhibition) at 200 ppm [3] | mortality at 200 ppm [4] | mortality at 200 ppm [5] | mortality at 200 ppm [6] | percent effect (mortality or growth inhibition) at 200 ppm [7] | mortality at 200 ppm [8]

CCS(=O)(=O)c1cc(-c2ncc(Cl)cn2)cnc1-c1nc2cc(C(F)(F)F)ncc2n1C [Compound P11]
≥ 80%: mortality at 200 ppm [2] | percent control (mortality, anti-feedancy or growth inhibition) at 12.5 ppm [9] | mortality at 200 ppm [10] | pest or weed control at 200 ppm [11] | percent control (mortality, anti-feedant effect or growth inhibition) at 200 ppm [3] | mortality at 200 ppm [4] | mortality at 200 ppm [5] | mortality at 200 ppm [6] | percent effect (mortality or growth inhibition) at 200 ppm [7] | mortality at 200 ppm [8]

CCS(=O)(=O)c1cc(-n2cc(Cl)cn2)cnc1-c1nc2cc(C(F)(F)F)ncc2n1C [Compound P16, 2-[5-(4-chloropyrazol-1-yl)-3-ethylsulfonyl-2-pyridyl]-3-methyl-6-(trifluoromethyl)imidazo[4,5-c]pyridine]
≥ 80%: mortality at 200 ppm [2] | percent control (mortality, anti-feedancy or growth inhibition) at 12.5 ppm [9] | mortality at 200 ppm [10] | pest or weed control at 200 ppm [11] | percent control (mortality, anti-feedant effect or growth inhibition) at 200 ppm [3] | mortality at 200 ppm [4] | mortality at 200 ppm [5] | mortality at 200 ppm [6] | percent effect (mortality or growth inhibition) at 200 ppm [7] | mortality at 200 ppm [8]

CCS(=O)(=O)c1cc(-n2cc(Br)cn2)cnc1-c1nc2cc(C(F)(F)F)ncc2n1C [Compound P17]
≥ 80%: mortality at 200 ppm [10] | pest or weed control at 200 ppm [11] | percent control (mortality, anti-feedant effect or growth inhibition) at 200 ppm [3] | mortality at 200 ppm [4] | mortality at 200 ppm [5] | percent effect (mortality or growth inhibition) at 200 ppm [7] | mortality at 200 ppm [8]

CCS(=O)(=O)c1cc(-c2ccccn2)cnc1-c1nc2cc(C(F)(F)F)ncc2n1C [Compound P18]
≥ 80%: mortality at 24 ppm [1] | mortality at 200 ppm [2] | percent control (mortality, anti-feedancy or growth inhibition) at 12.5 ppm [9] | pest or weed control at 200 ppm [11] | percent control (mortality, anti-feedant effect or growth inhibition) at 200 ppm [3] | mortality at 200 ppm [4] | mortality at 200 ppm [6] | percent effect (mortality or growth inhibition) at 200 ppm [7]

CCS(=O)(=O)c1cc(-c2ccc(C(F)(F)F)cn2)cnc1-c1nc2cc(C(F)(F)F)ncc2n1C [Compound P19]
≥ 80%: mortality at 200 ppm [2] | percent control (mortality, anti-feedancy or growth inhibition) at 12.5 ppm [9] | mortality at 200 ppm [10] | pest or weed control at 200 ppm [11] | percent control (mortality, anti-feedant effect or growth inhibition) at 200 ppm [3] | mortality at 200 ppm [4] | mortality at 200 ppm [6] | percent effect (mortality or growth inhibition) at 200 ppm [7] | mortality at 200 ppm [8]

CCS(=O)(=O)c1cc(-c2ccc(Cl)cn2)cnc1-c1nc2cc(C(F)(F)F)ncc2n1C [Compound P20]
≥ 80%: mortality at 200 ppm [2] | percent control (mortality, anti-feedancy or growth inhibition) at 12.5 ppm [9] | mortality at 200 ppm [10] | pest or weed control at 200 ppm [11] | percent control (mortality, anti-feedant effect or growth inhibition) at 200 ppm [3] | mortality at 200 ppm [4] | mortality at 200 ppm [5] | mortality at 200 ppm [6] | percent effect (mortality or growth inhibition) at 200 ppm [7] | mortality at 200 ppm [8]

CCS(=O)(=O)c1cc(-n2cc(C(F)(F)F)cn2)cnc1-c1nc2cc(C(F)(F)F)ncc2n1C [Compound P85]
≥ 80%: mortality at 200 ppm [2] | percent control (mortality, anti-feedancy or growth inhibition) at 12.5 ppm [9] | mortality at 200 ppm [10] | pest or weed control at 200 ppm [11] | percent control (mortality, anti-feedant effect or growth inhibition) at 200 ppm [3] | mortality at 200 ppm [4] | mortality at 200 ppm [5] | mortality at 200 ppm [6] | percent effect (mortality or growth inhibition) at 200 ppm [7] | mortality at 200 ppm [8]

CCS(=O)(=O)c1cc(-c2ccc(C#N)cn2)cnc1-c1nc2cc(C(F)(F)F)ncc2n1C [Compound P91]
≥ 80%: mortality at 200 ppm [2] | percent control (mortality, anti-feedancy or growth inhibition) at 12.5 ppm [9] | mortality at 200 ppm [10] | percent control (mortality, anti-feedant effect or growth inhibition) at 200 ppm [3] | mortality at 200 ppm [4] | mortality at 200 ppm [5] | mortality at 200 ppm [6] | percent effect (mortality or growth inhibition) at 200 ppm [7] | mortality at 200 ppm [8]

CCS(=O)(=O)c1cc(-c2nccc(C(F)(F)F)n2)cnc1-c1nc2cc(C(F)(F)F)ncc2n1C [Compound P100]
≥ 80%: mortality at 200 ppm [2] | percent control (mortality, anti-feedancy or growth inhibition) at 12.5 ppm [9] | mortality at 200 ppm [10] | pest or weed control at 200 ppm [11] | percent control (mortality, anti-feedant effect or growth inhibition) at 200 ppm [3] | mortality at 200 ppm [4] | mortality at 200 ppm [5] | mortality at 200 ppm [6] | percent effect (mortality or growth inhibition) at 200 ppm [7] | mortality at 200 ppm [8]

CCS(=O)(=O)c1cc(-n2cnc(Cl)n2)cnc1-c1nc2cc(C(F)(F)F)ncc2n1C [Compound P106]
≥ 80%: mortality at 24 ppm [1] | mortality at 200 ppm [2] | mortality at 200 ppm [10] | percent control (mortality, anti-feedant effect or growth inhibition) at 200 ppm [3] | mortality at 200 ppm [4] | mortality at 200 ppm [5] | mortality at 200 ppm [6] | percent effect (mortality or growth inhibition) at 200 ppm [7] | mortality at 200 ppm [8]
